# In US6737383B1, “Herbicidal oxadiazolidines” (priority 1999, dated 2004):
# What was measured:
# bedstraw = assay: Test B pre/postemergence bedstraw; type: in vivo, Galium aparine
# How it was run: (§1)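 Response is a visual 0-to-10 score relative to untreated plants, where 0 means no effect and 10 means complete control, taken twelve to sixteen days after application. Treatments went onto soil at planting and onto foliage of 1- to 4-leaf plants, using a surfactant-containing non-phytotoxic solvent.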
# blackgrass = assay: Test B pre/postemergence blackgrass; type: in vivo, Alopecurus myosuroides
# How it was run: as §1
# surinam grass = assay: Test B pre/postemergence surinam grass; type: in vivo, Brachiaria decumbens
# How it was run: as §1
# cocklebur = assay: Test B pre/postemergence cocklebur; type: in vivo, Xanthium strumarium
# How it was run: as §1
# corn = assay: Test B pre/postemergence corn; type: in vivo, Zea mays
# How it was run: as §1
# crabgrass = assay: Test B pre/postemergence crabgrass; type: in vivo, Digitaria sanguinalis
# How it was run: as §1
# rape = assay: Test B pre/postemergence rape; type: in vivo, Brassica napus
# How it was run: as §1
# soybean = assay: Test B pre/postemergence soybean; type: in vivo, Glycine max
# How it was run: as §1
# sugar beet = assay: Test B pre/postemergence sugar beet; type: in vivo, Beta vulgaris
# How it was run: as §1
# velvetleaf = assay: Test B pre/postemergence velvetleaf; type: in vivo, Abutilon theophrasti
# How it was run: as §1
# wheat = assay: Test B pre/postemergence wheat; type: in vivo, Triticum aestivum
# How it was run: as §1
# wild oat = assay: Test B pre/postemergence wild oat; type: in vivo, Avena fatua
# How it was run: as §1
# purple nutsedge = assay: Test B pre/postemergence purple nutsedge; type: in vivo, Cyperus rotundus
# How it was run: as §1
# rice = assay: Test B flood test rice; type: in vivo, Oryza sativa
# How it was run: (§2)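 Plants were grown to the 2-leaf stage before treatment with test chemical, then held in a greenhouse for twelve to sixteen days. Injury was visually rated against untreated controls on a 0–10 scale, where 0 is no effect and 10 is complete control.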
# smallflower flatsedge = assay: Test B flood test smallflower flatsedge; type: in vivo, Cyperus difformis
# How it was run: as §2
# duck salad = assay: Test B flood test duck salad; type: in vivo, Heteranthera limosa
# How it was run: as §2
# bamyardgrass = assay: Test B flood test barnyardgrass; type: in vivo, Echinochloa crus-galli
# How it was run: as §2
# [1] = Postemergence, Rate 62 g/ha, scale 0 to 10, 0 is no effect, 10 is complete control
# [2] = Postemergence, Rate 250 g/ha, scale 0 to 10, 0 no effect, 10 complete control
# [3] = Preemergence, Rate 62 g/ha, scale 0 to 10 (0 no effect, 10 complete control)
# [4] = Preemergence, Rate 125 g/ha, scale 0 to 10 (0 no effect, 10 complete control)
# [5] = Preemergence, Rate 250 g/ha, scale of 0 to 10 where 0 is no effect and 10 is complete control
# [6] = Preemergence, Rate 500 g/ha, scale 0 (no effect) to 10 (complete control)
# [7] = Rate 125 g/ha, Postemergence, scale 0 to 10, 0 no effect, 10 complete control
# [8] = Rate 500 g/ha, Postemergence, scale 0 to 10, 0 no effect, 10 complete control
# [9] = Rate 125 g/ha, Postemergence section (flood test species), scale 0 to 10, 0 no effect, 10 complete control
# [10] = Rate 500 g/ha, listed under Postemergence (flood test species), scale 0 to 10, 0 no effect, 10 complete control
# [11] = flood test, listed under Postemergence, Rate 250 g/ha, scale 0 to 10, 0 no effect, 10 complete control
compound,measurement,setting,value
CCN(C(=O)n1oc(=O)n(Cc2cccs2)c1=O)C1CCCCC1 [Compound 82],Bedstraw plant response rating,bedstraw; [1],0
same,Bedstraw plant response rating,bedstraw; [2],0
same,Bedstraw plant response rating,bedstraw; [3],0
same,"Plant response rating, Bedstraw",bedstraw; [4],0
same,"Plant response rating, Bedstraw",bedstraw; [5],0
same,Bedstraw plant response rating,bedstraw; [6],0
same,Bedstraw plant response rating,bedstraw; [7],0
same,Bedstraw plant response rating,bedstraw; [8],1
same,Blackgrass plant response rating,blackgrass; [1],0
same,Blackgrass plant response rating,blackgrass; [2],0
same,Blackgrass plant response rating,blackgrass; [3],0
same,"Plant response rating, Blackgrass",blackgrass; [4],0
same,"Plant response rating, Blackgrass",blackgrass; [5],0
same,Blackgrass plant response rating,blackgrass; [6],0
same,Blackgrass plant response rating,blackgrass; [7],0
same,Blackgrass plant response rating,blackgrass; [8],3
same,B. signalgrass plant response rating,surinam grass; [1],0
same,B. signalgrass plant response rating,surinam grass; [2],0
same,B. signalgrass plant response rating,surinam grass; [3],0
same,"Plant response rating, B. signalgrass",surinam grass; [4],0
same,"Plant response rating, B. signalgrass",surinam grass; [5],0
same,B. signalgrass plant response rating,surinam grass; [6],0
same,B. signalgrass plant response rating,surinam grass; [7],0
same,B. signalgrass plant response rating,"surinam grass; Rate 500 g/ha, Postemergence, scale of 0 to 10 where 0 is no effect and 10 is complete control",0
same,Cocklebur plant response rating,cocklebur; [1],0
same,Cocklebur plant response rating,cocklebur; [2],0
same,Cocklebur plant response rating,cocklebur; [3],0
same,"Plant response rating, Cocklebur",cocklebur; [4],0
same,"Plant response rating, Cocklebur",cocklebur; [5],0
same,Cocklebur plant response rating,cocklebur; [6],0
same,Cocklebur plant response rating,cocklebur; [7],0
same,Cocklebur plant response rating,cocklebur; [8],0
same,Corn plant response rating,corn; [1],0
same,Corn plant response rating,corn; [2],0
same,Corn plant response rating,corn; [3],0
same,"Plant response rating, Corn",corn; [4],0
same,"Plant response rating, Corn",corn; [5],0
same,Corn plant response rating,corn; [6],0
same,Corn plant response rating,corn; [7],0
same,Corn plant response rating,corn; [8],0
same,Crabgrass plant response rating,crabgrass; [1],0
same,Crabgrass plant response rating,crabgrass; [2],0
same,Crabgrass plant response rating,crabgrass; [3],0
same,"Plant response rating, Crabgrass",crabgrass; [4],0
same,"Plant response rating, Crabgrass",crabgrass; [5],0
same,Crabgrass plant response rating,crabgrass; [6],0
same,Crabgrass plant response rating,crabgrass; [7],0
same,Crabgrass plant response rating,crabgrass; [8],0
same,Rape plant response rating,rape; [1],0
same,Rape plant response rating,rape; [2],0
same,Rape plant response rating,rape; [3],0
same,"Plant response rating, Rape",rape; [4],0
same,"Plant response rating, Rape",rape; [5],0
same,Rape plant response rating,rape; [6],0
same,Rape plant response rating,rape; [7],0
same,Rape plant response rating,rape; [8],0
same,Soybean plant response rating,soybean; [1],0
same,Soybean plant response rating,soybean; [2],0
same,Soybean plant response rating,soybean; [3],0
same,"Plant response rating, Soybean",soybean; [4],0
same,"Plant response rating, Soybean",soybean; [5],0
same,Soybean plant response rating,soybean; [6],0
same,Soybean plant response rating,soybean; [7],0
same,Soybean plant response rating,soybean; [8],1
same,Sugarbeets plant response rating,sugar beet; [1],0
same,Sugarbeets plant response rating,sugar beet; [2],0
same,Sugarbeets plant response rating,sugar beet; [3],0
same,"Plant response rating, Sugarbeets",sugar beet; [4],0
same,"Plant response rating, Sugarbeets",sugar beet; [5],0
same,Sugarbeets plant response rating,sugar beet; [6],0
same,Sugarbeets plant response rating,sugar beet; [7],0
same,Sugarbeets plant response rating,sugar beet; [8],2
same,Velvetleaf plant response rating,velvetleaf; [1],0
same,Velvetleaf plant response rating,velvetleaf; [2],0
same,Velvetleaf plant response rating,velvetleaf; [3],0
same,"Plant response rating, Velvetleaf",velvetleaf; [4],0
same,"Plant response rating, Velvetleaf",velvetleaf; [5],0
same,Velvetleaf plant response rating,velvetleaf; [6],0
same,Velvetleaf plant response rating,velvetleaf; [7],0
same,Velvetleaf plant response rating,velvetleaf; [8],0
same,Wheat plant response rating,wheat; [1],0
same,Wheat plant response rating,wheat; [2],0
same,Wheat plant response rating,wheat; [3],0
same,"Plant response rating, Wheat",wheat; [4],0
same,"Plant response rating, Wheat",wheat; [5],0
same,Wheat plant response rating,wheat; [6],0
same,Wheat plant response rating,wheat; [7],0
same,Wheat plant response rating,wheat; [8],0
same,Wild oats plant response rating,wild oat; [1],0
same,Wild oats plant response rating,wild oat; [2],0
same,Wild oats plant response rating,wild oat; [3],0
same,"Plant response rating, Wild oats",wild oat; [4],0
same,"Plant response rating, Wild oats",wild oat; [5],0
same,Wild oats plant response rating,wild oat; [6],0
same,Wild oats plant response rating,wild oat; [7],0
same,Wild oats plant response rating,wild oat; [8],0
same,Nutsedge plant response rating,purple nutsedge; [1],0
same,Nutsedge plant response rating,purple nutsedge; [2],0
same,Nutsedge plant response rating,purple nutsedge; [3],0
same,"Plant response rating, Nutsedge",purple nutsedge; [4],0
same,"Plant response rating, Nutsedge",purple nutsedge; [5],0
same,Nutsedge plant response rating,purple nutsedge; [6],0
same,Nutsedge plant response rating,purple nutsedge; [7],0
same,Nutsedge plant response rating,purple nutsedge; [8],0
same,Rice plant response rating,rice; [1],0
same,Rice plant response rating,rice; [9],0
same,Rice plant response rating,rice; [10],0
same,Rice plant response rating,rice; [11],0
same,S. Flatsedge plant response rating,smallflower flatsedge; [1],0
same,S. Flatsedge plant response rating,smallflower flatsedge; [9],0
same,S. Flatsedge plant response rating,smallflower flatsedge; [10],0
same,S. Flatsedge plant response rating,smallflower flatsedge; [11],0
same,Ducksalad plant response rating,duck salad; [1],0
same,Ducksalad plant response rating,duck salad; [9],0
same,Ducksalad plant response rating,duck salad; [10],0
same,Ducksalad plant response rating,duck salad; [11],0
same,Barnyardgrass plant response rating,bamyardgrass; [1],0
same,Barnyardgrass plant response rating,bamyardgrass; [9],0
same,Barnyardgrass plant response rating,bamyardgrass; [10],0
same,Barnyardgrass plant response rating,bamyardgrass; [11],0
